Laboratory results reported in patent US5646316A, “Bile acid inhibitors of metalloproteinase enzymes” (OsteoArthritis Sciences, Inc., priority 1995, dated 1997).
Like-named read-outs stand apart in the source and are kept apart here.

Columns and labels:
[1] = target: stromelysin (Homo sapiens, UniProt P08254); test: Assay of Stromelysin Inhibition Activity (fluorogenic substrate hydrolysis); type: biochemical; conditions: for inhibition at 10 µM: read-out: percent inhibition of stromelysin
Method: (§1) Stromelysin was first activated by trypsin. This was done by preparing a reaction mixture in B-150 (B-150 consists of 150 mM NaCl, 20 mM Tris at pH 7.8 and 0.02% sodium azide) containing a final concentration of 4 μg/mL trypsin, 1.48 μg/mL of stromelysin, and 3.15 mM CaCl2. The reaction was incubated for 30 minutes at 37° C. and then quenched by adding soybean trypsin inhibitor to a final concentration of 43.6 μg/mL. ZnCl2 was added to the reaction mixture for a total concentration of 0.24 μM.
(§2) Following preparation of the solution of activated stromelysin, assay solutions were prepared for each inhibitor being tested. A control was also prepared. First, […] of activated stromelysin (about 45 μL from the solution of activated stromelysin) were aliquotted per assay tube. A 2.5 mM solution in 100% dimethyl sulfoxide (DMSO) was prepared for each inhibitor being tested and 1 μL from each inhibitor solution was added to one of the assay tubes. In addition, 1 μL of 100% DMSO was added to the control assay tube. All assay tubes were then pre-incubated for 5 minutes.
(§3) 5 μL of a previously prepared 50 μM solution of substrate in 15% DMSO were added to each assay tube. The substrate was a methoxycumarin developed by Knight et al. FEBS Lett. 296:263-66 (1992). The tubes were then incubated for 60 minutes, at which time the reaction was stopped with the addition of 750 μL of 0.1M NaAc pH 4.0 buffer.
(§4) Substrate hydrolysis was assessed by fluorescence using a slit width of 10:10, excitation at 328 nm and emission at 393 nm. The results of these assays are listed in Table I as percent inhibition at 10 μM of the bile acid provided compound tested or as the IC50.

[2] = tested on: chondrocytes; test: Chondrocyte Cell Culture Matrix Breakdown Assay (35S release, rhIL-1α stimulated); type: cell-based, calf; conditions: Bos taurus, Chondrocyte, read-out: percent inhibition, Cell Culture
Method: A cell culture assay was used to measure the ability of compounds to slow the degradation of the extracellular matrix by a metalloproteinase. This assay measured the amount ^35 S released from chondrocytes grown in a media with ^35 S labeled sodium sulfate. The cell culture assay was carried out as follows:
Two or three 1 to 3 week old calf joints were obtained from an abattoir. The proximal end of the shank was at about 4-5" long to facilitate immobilization in the holder. The joint was kept cool and transported on ice. The exterior of the intact joints was washed well with a suitable anti-microbial soap, rinsed clean with warm water, rinsed in betadine and then finally rinsed with 70% ethanol. Up to this point all steps were done in a manner to ensure that the joint was kept as clean as possible. All subsequent steps were performed in a sterile field (i.e., in a Edgeguard laminar flow tissue culture hood). The joint was immobilized and the synovial fluid was aspirated with a needle and syringe. The joint was then cut open to expose the articular cartilage using a #21 scalpel. Using locking hemostats, forceps and a #15 scalpel, the cartilage was excised in full thickness pieces. Care was taken not to cut too deep because bleeding would have occurred if the subchondral bone, was penetrated. The cartilage pieces were placed into a 50 mL centrifuge tube containing 25 mL of Delbecco's phosphate buffered saline (D-PBS) supplemented with 1% antibiotic solution (penicillin, streptomycin and fungizone; GIBCO/BRL). The slices from each joint were then placed into separate 50 mL centrifuge tubes. The D-PBS was decanted and replaced with 25 mL of fresh D-PBS supplemented with antibiotics and subsequently agitated gently.
The cartilage pieces were transferred to a fresh 50 mL centrifuge tube and rinsed once more with 25 mL of D-PBS minus antibiotics. An enzymatic digestion solution containing 1 mg/mL of hyaluronidase in serum-free 1:1 DMEM/Ham's F-12 (DMEM/F12) was prepared. This solution was filter sterilized with […] Milex--GV filter and kept on ice until ready to use. The cartilage pieces were digested with approximately 5 mL of hyaluronidase solution per joint for 2×15 minutes at 37° C. in the 50 mL centrifuge tube with gentle agitation at the 15 minute mark. This procedure removed residual hyaluronic acid from the surface of the chips. The enzymatic digestion solution was then aspirated and the cartilage pieces were rinsed with 25 mL of D-PBS.
A second enzymatic digestion solution containing 2.5 mg trypsin and 2 mg collagenase P per mL serum-free DMEM/F12 was prepared. This solution was also filter sterilized with a […] Millex--GV filter and kept on ice until ready to use. The cartilage pieces were digested with approximately 5 mL of trypsin: collagenase solution per joint for 2×15 minutes at 37° C. in the 50 mL centrifuge tube with gentle agitation at the 15 minute mark. This procedure removed the synovial fibroblasts and any adherent connective tissue from the surface of the chips. The enzymatic digestion solution was then carefully removed and saved and the cartilage pieces were rinsed with 25 mL of D-PBS.
A third enzymatic solution containing 2 mgs of collagenase P (BMB) per mL serum-free DMEM/F12 was prepared. This solution was filter sterilized with a […] Millex--GV filter and kept on ice until ready to use. The pre-digested cartilage pieces were finally digested with approximately 20 mL of enzymatic digestion solution per joint for 5-6 hours at 37° C. in a Bellco stirring digestion flask, at which point the cartilage was fully digested away.
The enzymes in the synovial fibroblast and chondrocyte digest were neutralized by addition of an equal volume of DMEM/F12 supplemented with 5% fetal bovine serum. Fibroblasts were plated in DMEM at a cellular density of 6.6×10^3 cells per cm^2. […]

[3] = tested on: collagenase; test: Assay of Collagenase Inhibition Activity; type: biochemical; conditions: at 10 μM of compound; 45 minutes at 37° C.
Method: as §1, §2, §3, §4
The assay procedure for collagenase was the same as described in Example 13 for stromelysin except that the trypsin activation was performed for 45 minutes. In addition, the incubation of the assay tubes at 37° C. was only for 45 minutes, and the final enzyme concentration is 6 nm. The results of these assays are provided in Table I as percent inhibition at 10 μM of the compound tested.

[4] = tested on: bovine cartilage explants; test: Bovine Cartilage Explant Assay (35S-GAG release, rhIL-1α stimulated; tissue culture); type: cell-based; conditions: Bos taurus; at 50 μM; rhIL-1α 5 ng/mL; 3-4 days; read-out: percent inhibition of extracellular matrix damage, Tissue Culture
Text: A tissue culture assay was used to measure the ability of the compounds of the present invention to slow the degradation of the extracellular matrix by metalloproteinases. This assay measured the amount of ^35 S-glycosaminoglycan (^35 S-GAG) released from labeled bovine cartilage explants.
Knee joints from a 1 to 3 week old calf were obtained immediately after sacrifice from the Abattoir and then transported on ice. The intact joints were washed well with tap water and soaked in 50% (v/v) Povidine iodine solution, obtained from Burre National, Inc., Baltimore, Md. All subsequent steps were performed in a laminar flow tissue culture hood using standard sterile technique. The joint was immobilized in a shank holder and the joint capsule was cut open to expose the articular cartilage. Cartilage explant plugs, approximately 15 mg wet weight, were removed from the flat articulating surfaces in the lower-most region of the knee joint using a sterile steel cork-borer and collected in a 250 mL roller bottle containing about 100 mL fresh Delbecco's minimum essential medium (DMEM), obtained from Gibco BRC, Life Technologies, Gaithersburg, Md., containing 4.5 g/1 (D)-glucose and (L)-glutamine, without sodium pyruvate. The fresh media also contained enough Hepes buffer and sodium bicarbonate such that the pH was about 7.4. The media was then further supplemented just before use with 100 units Penicillin, 100 μg Streptomycin, and 50 μg (L)-ascorbic acid per mL of medium.
Once collected, the explant plugs were washed four times with 50 mL fresh DMEM. The plugs were then placed in the incubator for a minimum of 1 hour to equilibrate, before proceeding to make disks from the articulating surface of each plug. A 1 mm thick disk was sliced from individual plugs from the end that was the articulating surface of the joint. The plug was held steady in the sterile template (4 mm diameter×1.5 mm deep) using sterile forceps. A scalpel blade was used to carefully slice off the disk. Only the superficial articulating surface responded well in culture.
Individual disks obtained were transferred to a tissue culture flask containing about 100 mL fresh media. The flask containing the disks was placed in an incubator at 37° C. (with 5% CO2, 95% air) and allowed to equilibrate overnight and at least one additional day before labeling. When ready to label, the old media was replaced with 50 mL fresh media containing about 500 μCi ^35 S-Sodium Sulfate. The plugs were labeled in bulk for about 48 hours. The next morning, the "hot" media was removed and replaced with fresh "cold" media. The disks were again allowed to equilibrate overnight before being used for actual experiments.
The media in which the disks were stored was changed immediately prior to performing the assay. The disks were then returned to the incubator until the test media and the two control media had been prepared. The test media consisted of a bile acid or bile acid derivative (50 μM) being tested for its ability to inhibit extracellular matrix degradation and concomitant recombinant human Interleukin rhIL-1α (5 ng/mL) in fresh DMEM solution. The control media were identical to the test media, except that the first control media lacked rhIL-1α and the second control media lacked an inhibitor, i.e. a bile acid or bile acid derivative. 250 μL of each of the test and control media were transferred to separate 96-well TC plates. Flamed forceps were used to transfer a disk from the incubator to each 96-well TC plates that had been filled with either the test media or one of the two control media.
The TC plates were then placed in the incubator and cultured for 3-4 days (initial incubation with rhIL-1α alpha takes at least 3 days to stimulate endogenous metalloproteinases). A 50 μL aliquot of media from each TC plate was saved and counted. The rest of the media was removed with a suction device.
The cartilage disks from each TC plate were also saved for counting. […]

[5] = at 50 μM, rhIL-1α 1 ng/ml, 22-24 hours

Sequence of stromelysin (P08254 100-477): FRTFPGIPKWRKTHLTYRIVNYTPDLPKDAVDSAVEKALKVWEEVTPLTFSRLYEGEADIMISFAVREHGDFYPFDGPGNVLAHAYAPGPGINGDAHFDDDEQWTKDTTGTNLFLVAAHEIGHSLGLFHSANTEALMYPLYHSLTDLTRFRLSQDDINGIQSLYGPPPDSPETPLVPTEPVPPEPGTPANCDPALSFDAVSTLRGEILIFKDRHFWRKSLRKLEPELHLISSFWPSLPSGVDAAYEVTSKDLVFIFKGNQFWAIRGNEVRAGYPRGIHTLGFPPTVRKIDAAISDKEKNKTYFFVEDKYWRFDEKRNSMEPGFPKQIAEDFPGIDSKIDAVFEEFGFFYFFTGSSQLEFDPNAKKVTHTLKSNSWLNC

C[C@H](CCC(=O)N[C@H](CCc1ccccc1)C(=O)NO)[C@H]1CC[C@H]2[C@@H]3CC[C@@H]4C[C@H](O)CC[C@]4(C)[C@H]3CC[C@]12C [Compound 28, Lithocholyl-(D)-homophenylalanine Hydroxamic Acid]
inhibition at 10 µM ([1]; at 10 μM of compound): 92%

C[C@H](CCC(=O)O)[C@H]1CC[C@H]2[C@@H]3[C@@H](O)C[C@@H]4C[C@H](O)CC[C@]4(C)[C@H]3CC[C@]12C [Compound 3, ursodeoxycholic acid, reference compound]
inhibition at 10 µM ([1]; at 10 μM of compound): 21%
inhibition at 50 µM [2, 5]: 5%

C[C@H](CCC(=O)O)[C@H]1CC[C@H]2[C@@H]3CC[C@@H]4C[C@H](O)CC[C@]4(C)[C@H]3C[C@H](O)[C@]12C [Compound 2, deoxycholic acid, reference compound]
inhibition at 10 µM [1]: 23%
inhibition at 50 µM [2, 5]: -14%

C[C@H](CCC(=O)O)[C@H]1CC[C@H]2[C@@H]3C[C@H](O)[C@@H]4C[C@H](O)CC[C@]4(C)[C@H]3CC[C@]12C [Compound 4, hyodeoxycholic acid, reference compound]
inhibition at 10 µM ([1]; at 10 μM of compound): 18%
inhibition at 50 µM [2, 5]: 7%

C[C@H](CCC(=O)NO)[C@H]1CC[C@H]2[C@@H]3[C@H](O)C[C@@H]4C[C@H](O)CC[C@]4(C)[C@H]3C[C@H](O)[C@]12C [Compound 23, Cholylhydroxamic Acid]
inhibition at 10 µM ([1]; at 10 μM of compound): 12%
inhibition at 50 µM [2, 5]: -20%

C[C@H](CCC(=O)NCCC[N+](C)(C)CC(O)CS(=O)(=O)[O-])[C@H]1CC[C@H]2[C@@H]3[C@H](O)C[C@@H]4C[C@H](O)CC[C@]4(C)[C@H]3C[C@H](O)[C@]12C (stereo partly drawn) [Compound 5, 3-[(3-cholamidopropyl)dimethylammonio]-2-hydroxy-1-propanesulfonate, reference compound]
inhibition at 10 µM [1]: 15%
inhibition at 50 µM [2]: 35%

C[C@H](CCC(=O)O)[C@H]1CC[C@H]2[C@@H]3[C@H](O)C[C@@H]4C[C@H](O)CC[C@]4(C)[C@H]3CC[C@]12C [Compound 6, Chenodeoxycholic acid, reference compound]
percent inhibition of collagenase [3]: 6%
inhibition at 50 µM [4]: 23%

C[C@H](CCC(=O)N[C@@H](CCc1ccccc1)C(=O)NO)[C@H]1CC[C@H]2[C@@H]3CC[C@@H]4C[C@H](O)CC[C@]4(C)[C@H]3CC[C@]12C [Compound 27, Lithocholyl-(L)-homophenylalanine Hydroxamic Acid]
inhibition at 10 µM ([1]; at 10 μM of compound): 90%

C[C@H](CCC(=O)NO)[C@H]1CC[C@H]2[C@@H]3[C@H](O)C[C@@H]4C[C@H](O)CC[C@]4(C)[C@H]3CC[C@]12C [Compound 14, Chenodeoxycholyhydroxamic Acid]
percent inhibition of collagenase [3]: 19%
inhibition at 50 µM [2, 5]: 77%

C[C@H](CCC(=O)N[C@H](Cc1ccccc1)C(=O)NO)[C@H]1CC[C@H]2[C@@H]3CC[C@@H]4C[C@H](O)CC[C@]4(C)[C@H]3CC[C@]12C [Compound 22, Lithocholyl-(D)-Phenylalanine Hydroxamic Acid]
IC50 ([1]; 60 minutes incubation): 1200 nM
inhibition at 50 µM [2, 5]: 5%
